Experimental data as given in US12194057B2, “NXTAR-derived oligonucleotides and uses thereof” (Washington University, priority 2020, dated 2025).
Oligonucleotides are written 5' to 3', each unit as a sugar letter and its base; * is a phosphorothioate linkage, no mark a phosphodiester; rarer units and linkages stand in square brackets, end groups in braces. Plain capitals give the bases only. d = 2'-deoxy (DNA)

Tests used:
[1] = tested on: NXTAR; assay: qRT-PCR of NXTAR expression in prostate cancer cell lines; format: cell-based, human
Experimental: (§1) Cells were transfected, infected or treated [(R)-9b; EPZ6438, TargetMol, Cat #T1788] accordingly. RNA was used for cDNA preparation using High-Capacity cDNA Reverse Transcription Kit (Thermo Scientific Cat #4368814). Resulting cDNA was then analyzed by qPCR using an Applied Biosystems 7900 Real-Time PCR System (Thermo Scientific) and SYBR Green PCR Master Mix [SYBR PremixEx Taq II (Tli RNase H Plus) ROX, Clontech Takara, Cat #RR82LR] according to the manufacturers' instructions. Dissociation curves were generated for each plate to verify the integrity of the primers. The relative expression of RNAs was calculated using the comparative Ct or standard curve method. 18S rRNA or actin were used as internal controls.

[2] = tested on: NXTAR promoter; assay: ChIP-qPCR at NXTAR promoter (Ppr3, Ppr4), IRF8 binding site and NXTAR enhancer; format: cell-based, human; settings: 22Rv1 and LNCaP cells, (R)-9b combined with CPTH2
Experimental: (§2) Chromatin immunoprecipitation (ChIP), quantitative RT-PCR, and ChIP-qPCR were performed as described earlier (see e.g., Mahajan et al. (2017) Cancer Cell; Mahajan et al. (2012) J Biol Chem; and Mahajan et al. (2012) Nat Struct Mol Bio). Briefly, cells were either transfected, infected or treated with various inhibitors (R)-9b; CPTH2 (Sigma, Cat #C9873)], fixed in formaldehyde, lysed and ChIP was performed with antibodies recognizing AR (SCBT, sc-7305; RRID:AB_626671), GCN5 (SCBT, SC-365321; RRID:AB_10846182), H3K14ac (CST, 7627S; RRID:AB_10839410), H3K27me3 (CST, 9733S; RRID:AB 2616029), NCOR1 (Bethyl Laboratories, Cat #A301-145A; RRID:AB_873085), EZH2 (CST, 5246S; RRID:AB_10694683), or IgG (Abcam, ab2410; RRID:AB_303052), immobilized on Protein A magnetic beads (Biorad, Cat #161-4013). The complexes were washed with ChIP buffers, eluted with elution buffer (Active Motif, Cat #53008), and subjected to reverse crosslinking, followed by RNase and proteinase K treatments. A part of soluble chromatin was processed separately at the same time and designated as input DNA. Treated ChIP DNA and input DNAs were purified using PCR-DNA purification columns (Qiagen, Cat #28106). The amount of immunoprecipitated DNA was determined by real-time PCR.

[3] = tested on: AR; assay: qRT-PCR of AR and AR target gene expression in prostate cancer cells; format: cell-based, human
Experimental: (§3) NXTAR-N5 oligonucleotide was synthesized by IDT, and the oligonucleotide sequence is provided in TABLE 1 and FIG. 7C (* represents phosphorothioate bond modifications to avoid degradation by exonucleases). Equal numbers of VCaP and 22Rv1 cells were transfected with NXTAR-N5 or globin-derived oligonucleotide using X-tremeGENE360 (Sigma-Aldrich, Cat #08724121001), and the number of live cells was counted 96 h post-transfection using trypan blue exclusion method (Sigma, Cat #T8154). RNA was prepared from these cells, and qRT-PCR [SYBR PremixEx Taq II (Tli RNase H Plus)ROX, Clontech Takara, Cat #RR82LR] for AR and AR-V7 was performed as described earlier (see e.g., Mahajan et al. (2017) Cancer Cell).
as §1

[4] = tested on: VCaP and 22Rv1 cells; assay: Proliferation assay, viable cells by trypan blue exclusion; format: cell-based, human
Experimental: as §3
The 22Rv1, VCaP, or LNCaP cells were retrovirally infected with control or NXTAR vectors and selected in puromycin medium containing 5% charcoal-stripped serum. Equal numbers of selected cells were seeded in 6-well plates followed by treatment with either (R)-9b, enzalutamide (Selleck Chemicals, Cat #S1250), or abiraterone (Selleck Chemicals, Cat #52246), and the number of viable cells was counted by trypan blue exclusion assay.

[5] = tested on: AR promoter; assay: ChIP-qPCR (EZH2, H3K27me3) at AR promoter; format: cell-based, human; settings: VCaP cells transfected with oligo, ChIP
Experimental: as §2

[6] = tested on: AR-V7; assay: qRT-PCR of AR-V7 expression in prostate cancer cells; format: cell-based, human; settings: VCaP and 22Rv1 cells transfected with oligonucleotide
Experimental: as §3
as §1, with “18S rRNA or actin were used as internal controls.” left out

[7] = tested on: upstream of AR; assay: ChIRP with biotin-labeled oligos and VCaP lysate, qPCR with AR Up1.1 primers; format: binding, human; settings: biotinylated oligo on streptavidin beads, VCaP lysate, qPCR AR Up1.1
Experimental: (§4) Biotin-labeled NXTAR-N5 (complementary to the AR promoter) and globin oligos were synthesized (IDT) (see e.g., TABLE 1). ChIRP was performed using lysate from formaldehyde-fixed VCaP cells and oligos that were immobilized to streptavidin beads, as described earlier (see e.g., Chu and Chang (2016) Methods Mol Bio). The amount of the chromatin DNA was determined by real-time PCR. For detection of NXTAR-N5/EZH2 binding, biotin-labeled NXTAR-N5 oligo and control globin oligo were incubated with VCaP cell lysates and were subjected to chromatin pull-down, followed by immunoblotting with EZH2 antibodies.

[8] = target: T1, purified EZH2 (Homo sapiens, UniProt Q15910); assay: EZH2 pull-down assay with purified 6xHis-tagged EZH2; format: binding; settings: pull-down, immunoblotting
T1 construct: made in house
Experimental: 1 mg of lysate prepared from HEK293 cells transfected with 6λHis-tagged-EZH2 plasmid was incubated with Ni-NTA agarose beads (Qiagene) overnight at 4° C. Beads were washed three times using wash buffer (20 mM Tris/HCl, 200 mM NaCl, 5 mM imidazole; pH 7.5) and purified EZH2 was eluted using elution buffer (20 mM Tris/HCl, 200 mM NaCl, 200 mM imidazole; pH 7.5).
LncRNA-Protein binding study was performed as described earlier (see e.g., Zhao, Wang, and Hu (2021) Methods Mol Bio). Briefly, 10 pmol Biotinylated NXTAR-N5 oligo or Biotinylated Globin oligos were diluted in 40 ul RNA structure buffer, heated at 90° C. for 2 min, immediately transferred onto ice for 2 min and then kept at RT for further 20 mins. 10 uM of purified EZH2 protein was added to these biotinylated oligos with 500 ul of NETN buffer and the tubes were placed at 4° C. for 2 hrs. Post washing with cold NETN buffer, streptavidin magnetic beads (60 ul) were added into prepared oligo-protein mix and incubated at 4° C. overnight. Beads were washed 3 times with NETN buffer, followed by western blot analysis. […]

[9] = target: T2, EZH2 (Homo sapiens, UniProt Q15910); assay: Pull-down from VCaP cell lysates with biotinylated oligos, immunoblotting for EZH2; format: binding; settings: VCaP cell lysate, chromatin pull-down
T2 construct: endogenous in cells; host or cells: VCaP cells (some retrovirally infected to over-express NXTAR lncRNA)
Experimental: The biotinylated oligonucleotides were incubated with lysates (2 h), and the lysates were incubated with streptavidin magnetic beads overnight. Beads attached to RNAs were divided equally and processed for either RNA isolation or western blotting. For RNA isolation, beads were washed three times and then separated using proteinase K treatment. RNA was then isolated and purified, and DNA was digested in the process. The real-time quantitative RT-PCR was performed on isolated RNA to check the efficiency of pull-down of NXTAR RNA. The remaining beads were heated at 80° C. for 5 min in loading buffer, followed by western blotting. The blots were probed with EZH2 (CST, 5246S; RRID:AB_10694683) antibody and Actin (SCBT, sc-47778; RRID:AB_2714189) was used as the loading control.
as §4

[10] = Enzalutamide-resistant VCaP cells, 7 μM enzalutamide, 96 h

T1 sequence (Q15910 whole entry): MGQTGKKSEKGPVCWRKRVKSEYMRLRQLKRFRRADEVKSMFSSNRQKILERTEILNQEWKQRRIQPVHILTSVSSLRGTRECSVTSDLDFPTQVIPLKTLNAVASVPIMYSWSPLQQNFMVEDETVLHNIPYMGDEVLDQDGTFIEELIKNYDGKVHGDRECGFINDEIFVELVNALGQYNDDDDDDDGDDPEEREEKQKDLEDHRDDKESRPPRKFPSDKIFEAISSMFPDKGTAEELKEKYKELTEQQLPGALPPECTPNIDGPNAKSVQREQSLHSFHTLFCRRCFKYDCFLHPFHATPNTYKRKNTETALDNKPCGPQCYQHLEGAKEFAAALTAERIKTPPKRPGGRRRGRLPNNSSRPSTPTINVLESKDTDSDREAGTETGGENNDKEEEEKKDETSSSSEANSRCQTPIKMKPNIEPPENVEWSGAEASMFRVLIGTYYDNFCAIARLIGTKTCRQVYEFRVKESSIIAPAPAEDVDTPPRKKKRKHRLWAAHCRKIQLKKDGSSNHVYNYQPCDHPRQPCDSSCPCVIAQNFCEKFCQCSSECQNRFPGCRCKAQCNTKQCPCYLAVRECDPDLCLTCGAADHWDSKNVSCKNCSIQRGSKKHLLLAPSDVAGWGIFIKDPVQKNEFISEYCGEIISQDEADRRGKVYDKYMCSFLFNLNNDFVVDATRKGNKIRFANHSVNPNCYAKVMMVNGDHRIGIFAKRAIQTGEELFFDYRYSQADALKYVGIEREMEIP
T2 sequence (Q15910 whole entry): as above
T2 sequence (O75530 whole entry partner): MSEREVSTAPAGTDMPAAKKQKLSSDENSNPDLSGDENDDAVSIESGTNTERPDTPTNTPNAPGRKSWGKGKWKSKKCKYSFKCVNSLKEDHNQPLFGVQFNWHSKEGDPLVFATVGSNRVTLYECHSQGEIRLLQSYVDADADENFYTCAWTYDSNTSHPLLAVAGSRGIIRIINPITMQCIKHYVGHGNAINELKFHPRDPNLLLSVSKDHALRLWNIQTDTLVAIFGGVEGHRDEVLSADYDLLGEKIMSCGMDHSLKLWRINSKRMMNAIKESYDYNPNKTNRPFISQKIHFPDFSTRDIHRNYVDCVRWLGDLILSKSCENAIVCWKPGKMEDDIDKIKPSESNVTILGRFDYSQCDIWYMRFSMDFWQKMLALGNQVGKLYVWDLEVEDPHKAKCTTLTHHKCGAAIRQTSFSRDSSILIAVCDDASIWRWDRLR
T2 sequence (Q15022 whole entry partner): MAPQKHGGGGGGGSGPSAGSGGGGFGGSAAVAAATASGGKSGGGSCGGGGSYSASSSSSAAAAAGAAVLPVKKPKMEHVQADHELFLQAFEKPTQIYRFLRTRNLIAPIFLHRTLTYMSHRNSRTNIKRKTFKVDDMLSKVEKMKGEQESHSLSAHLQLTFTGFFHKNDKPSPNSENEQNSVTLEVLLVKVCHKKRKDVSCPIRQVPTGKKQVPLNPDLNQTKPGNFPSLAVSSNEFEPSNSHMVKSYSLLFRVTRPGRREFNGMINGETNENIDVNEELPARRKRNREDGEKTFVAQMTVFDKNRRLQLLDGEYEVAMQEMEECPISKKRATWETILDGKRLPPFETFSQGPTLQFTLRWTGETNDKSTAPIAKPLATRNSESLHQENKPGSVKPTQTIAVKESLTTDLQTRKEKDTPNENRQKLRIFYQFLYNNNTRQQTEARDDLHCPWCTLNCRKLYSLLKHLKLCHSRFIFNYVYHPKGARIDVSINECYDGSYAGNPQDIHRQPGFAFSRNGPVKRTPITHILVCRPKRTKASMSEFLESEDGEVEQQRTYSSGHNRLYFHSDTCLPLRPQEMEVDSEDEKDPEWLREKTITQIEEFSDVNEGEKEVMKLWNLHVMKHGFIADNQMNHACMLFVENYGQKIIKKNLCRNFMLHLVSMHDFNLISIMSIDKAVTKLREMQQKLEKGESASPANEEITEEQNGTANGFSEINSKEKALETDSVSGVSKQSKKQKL
T2 sequence (Q09028 whole entry partner): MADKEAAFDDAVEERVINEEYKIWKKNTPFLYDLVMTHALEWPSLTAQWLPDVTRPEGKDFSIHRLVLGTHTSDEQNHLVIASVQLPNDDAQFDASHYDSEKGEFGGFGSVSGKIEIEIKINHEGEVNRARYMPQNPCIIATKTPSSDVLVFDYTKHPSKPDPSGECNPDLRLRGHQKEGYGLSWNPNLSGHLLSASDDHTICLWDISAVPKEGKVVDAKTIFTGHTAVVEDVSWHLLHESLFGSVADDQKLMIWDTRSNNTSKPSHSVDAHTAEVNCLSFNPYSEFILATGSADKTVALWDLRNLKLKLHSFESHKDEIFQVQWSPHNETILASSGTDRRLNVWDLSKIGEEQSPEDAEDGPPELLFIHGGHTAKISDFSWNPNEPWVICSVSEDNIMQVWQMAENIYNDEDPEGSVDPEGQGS

## Clc1ccc(-c2csc(NN=C3CCCC3)n2)cc1 [CPTH2]
[1]; 22Rv1 and LNCaP cells, CPTH2 in combination with (R)-9b
  NXTAR levels following (R)-9b treatment under GCN5 inhibition: severely compromised
[2]
  H3K14ac mark deposition at Ppr3 and Ppr4: abrogated

## CCN(c1cc(-c2ccc(CN3CCOCC3)cc2)cc(C(=O)NCc2c(C)cc(C)[nH]c2=O)c1C)C1CCOCC1 [EPZ6438, reference compound]
[3]; VCaP cells infected with NXTAR construct, EPZ6438 1 μM overnight
  AR expression: restored the AR expression

## CNC(=O)c1ccc(N2C(=S)N(c3ccc(C#N)c(C(F)(F)F)c3)C(=O)C2(C)C)cc1F [enzalutamide, reference compound]
[4]; VCaP (9 days) and 22Rv1 (5 days) cells, androgen-deprived, drug treatment
  proliferation (number of viable cells): did not result in a significant decrease in proliferation
[3]; [10]
  AR levels: marginal decrease in AR levels
[1]; [10]
  NXTAR levels: no change in NXTAR levels

## NXTAR-N5: 60-mer oligonucleotide, nt 511-570 of SEQ ID NO: 58, terminal phosphorothioate bonds (SEQ ID NO: 1) (DNA dA*dT*dT*dAdTdTdAdTdTdTdTdAdAdAdTdTdTdAdCdAdGdAdAdGdGdGdGdAdAdAdCdTdAdAdGdAdAdTdTdAdTdAdGdAdCdAdTdGdAdAdGdTdGdAdCdTdC*dA*dC*dC)
[4]; VCaP and 22Rv1 cells, 96 h post-transfection
  proliferation (live cells): compromised proliferation
[5]
  histone H3K27 methylation in the AR promoter region (−0.7 kb): induced histone H3K27 methylation
[6]
  AR-V7 transcription: significant decrease
[7]
  binding upstream of AR: bound upstream of AR
[8]
  interaction with purified EZH2: interaction with purified EZH2 (as described above) was confirmed
[9]
  interaction with EZH2: interaction with EZH2 was confirmed
[3]; VCaP and 22Rv1 cells transfected with oligonucleotide
  AR transcription: significant decrease
[3]; transfection of oligos, prostate and other cancer cell lines
  AR expression: highly effective
